{"source": "patent US5886027A", "about": "“Fungicidal compounds” (BTG International Limited, priority 1995, dated 1999)", "key": {"[1]": {"details": "Jacobsen and Wengel, Pestic. Sci., 1986, 17, 686-690; cited from earlier work"}, "Fusarium graminearum": {"system": "Fusarium graminearum", "test": "microbe, parasite or virus in culture", "type": "cell-based"}, "Botrytis cinerea": {"system": "Botrytis cinerea", "test": "microbe, parasite or virus in culture", "type": "cell-based, Botrytis cinerea (grey mould)"}, "[2]": {"system": "Pseudocercosporella herpotrichoides", "test": "microbe, parasite or virus in culture", "type": "cell-based, Pseudocercosporella herpotrichoides (eyespot)"}, "Pyricularia oryzae": {"system": "Pyricularia oryzae", "test": "microbe, parasite or virus in culture", "type": "cell-based"}, "[3]": {"system": "Pseudocercosporella herpotrichoides", "test": "Further in vitro assay, W-type and R-type isolates of Pseudocercosporella herpotrichoides", "type": "cell-based"}, "Rhizoctonia solani": {"system": "Rhizoctonia solani", "test": "microbe, parasite or virus in culture", "type": "cell-based"}, "Aspergillus niger": {"system": "Aspergillus niger", "test": "microbe, parasite or virus in culture", "type": "cell-based"}, "[4]": {"system": "Erysiphe graminis f.sp hordei", "design": "species or system Erysiphe graminis f.sp hordei (barley powdery mildew)", "details": "in vivo"}, "Fusarium sulphureum": {"system": "Fusarium sulphureum", "test": "Further in vitro assay, isolates of Fusarium sulphureum", "type": "cell-based", "details": "F. sulphureum, Table 2(f)"}, "Ustilago maydis": {"system": "Ustilago maydis", "test": "microbe, parasite or virus in culture", "type": "cell-based, Ustilago maydis (maize smut)"}, "Neurospora crassa": {"system": "Neurospora crassa", "test": "microbe, parasite or virus in culture", "type": "cell-based"}, "14 day old seedlings": {"system": "14 day old seedlings", "test": "Phytotoxic effects on sprayed 14 day old seedlings", "type": "in vivo, barley", "details": "dosage levels below those currently used for triazole fungicides"}, "Helminthosporium solani": {"system": "Helminthosporium solani", "test": "Further in vitro assay, isolates of Helminthosporium solani", "type": "cell-based", "details": "H. solani, Table 2(e)"}, "Septoria tritici": {"system": "Septoria tritici", "test": "microbe, parasite or virus in culture", "type": "cell-based, Septoria tritici (wheat leaf blotch)"}, "Rhynchosporium secalis": {"system": "Rhynchosporium secalis", "type": "cell-based, Rhynchosporium secalis (barley leaf blotch)"}, "[5]": {"details": "read-out: % inhibition of growth in colony diameter"}, "[6]": {"details": "Rhizoctonia solani, read-out: % inhibition of growth in colony diameter"}, "[7]": {"details": "Aspergillus niger, read-out: % inhibition of growth in colony diameter"}}}
{"smiles": "CC(C)c1cc2c(o1)C(=O)c1ccccc1C2=O", "note": "[(A)]", "values": [{"measurement": "fungicidal activity", "setting": "[1]", "value": "inactive"}]}
{"smiles": "CCC1(CC)CC2=C(O1)C(=O)c1ccccc1C2=O", "note": "[(B)]", "values": [{"measurement": "fungicidal activity", "setting": "[1]", "value": "intermediate fungicidal activity"}]}
{"smiles": "c1ccc2[nH]cnc2c1", "note": "[Benzimidazole]", "values": [{"measurement": "Sensitivity (R)", "setting": "Fusarium graminearum; isolate JF18", "value": "R"}, {"measurement": "Sensitivity (S/R)", "setting": "Botrytis cinerea", "value": "R and S"}, {"measurement": "Sensitivity (R)", "setting": "[2]", "value": "R"}]}
{"smiles": "COC(=O)Nc1nc2ccccc2[nH]1", "note": "[Carbendazim, reference compound]", "values": [{"measurement": "inhibition at 1 µg/mL", "setting": "Pyricularia oryzae; [5]", "value": 14.7, "unit": "%"}, {"measurement": "inhibition at 4 µg/mL", "setting": "Pyricularia oryzae; [5]", "value": 99.4, "unit": "%"}, {"measurement": "Sensitivity to Carbendazim", "setting": "[3]; R-type isolate (first line)", "value": "Sensitive"}, {"measurement": "Sensitivity to Carbendazim", "setting": "[3]; R-type isolate (second line)", "value": "Resistant"}, {"measurement": "Sensitivity to Carbendazim", "setting": "[3]; W-type isolate (first line)", "value": "Sensitive"}, {"measurement": "Sensitivity to Carbendazim", "setting": "[3]; W-type isolate (second line)", "value": "Resistant"}, {"measurement": "inhibition at 1 µg/mL", "setting": "Rhizoctonia solani; [6]", "value": 3.3, "unit": "%"}, {"measurement": "inhibition at 4 µg/mL", "setting": "Rhizoctonia solani; [6]", "value": 81.2, "unit": "%"}]}
{"smiles": "CCCN(CCOc1c(Cl)cc(Cl)cc1Cl)C(=O)n1ccnc1", "note": "[Prochloraz, reference compound]", "values": [{"measurement": "inhibition at 1 µg/mL", "setting": "Aspergillus niger; Aspergillus niger, 1 mg/l, read-out: % inhibition of growth in colony diameter", "value": 97.1, "unit": "%"}]}
{"smiles": "CC(C)(C)C(O)C(Oc1ccc(Cl)cc1)n1cncn1", "note": "(stereo not drawn) [Triadimenol]", "values": [{"measurement": "Sensitivity of isolate (S/R)", "setting": "[4]", "value": "S and R"}]}
{"smiles": "CC1OC2=C(C(=O)C(=O)c3ccccc32)C1(C)C", "note": "(stereo not drawn) [dunnione]", "values": [{"measurement": "cross-resistance with thiabendazole", "setting": "Fusarium sulphureum", "value": "no evidence of cross-resistance"}, {"measurement": "anti-fungal activity (in words)", "setting": "Ustilago maydis", "value": "active"}, {"measurement": "level of activity compared with azole fungicides currently in use", "setting": "Ustilago maydis", "value": "similar, or better"}, {"measurement": "IC50", "setting": "Ustilago maydis; Mycosarcoma maydis, ATCC14826, read-out: ED50", "value": 3, "unit": "µg/mL"}, {"measurement": "fungicidal activity (in words)", "setting": "Pyricularia oryzae", "value": "active"}, {"measurement": "inhibition at 4 µg/mL", "setting": "Pyricularia oryzae; [5]", "value": 75, "unit": "%"}, {"measurement": "inhibition at 20 µg/mL", "setting": "Pyricularia oryzae; [5]", "value": 99, "unit": "%"}, {"measurement": "inhibition at 100 µg/mL", "setting": "Pyricularia oryzae; [5]", "value": 100, "unit": "%"}, {"measurement": "anti-fungal activity (in words)", "setting": "Neurospora crassa", "value": "Significant activity"}, {"measurement": "IC50", "setting": "Neurospora crassa; Neurospora crassa, read-out: ED50", "value": 2, "unit": "µg/mL"}, {"measurement": "fungicidal activity (in words)", "setting": "Aspergillus niger", "value": "active"}, {"measurement": "inhibition at 4 µg/mL", "setting": "Aspergillus niger; [7]", "value": 30, "unit": "%"}, {"measurement": "inhibition at 20 µg/mL", "setting": "Aspergillus niger; [7]", "value": 99, "unit": "%"}, {"measurement": "inhibition at 100 µg/mL", "setting": "Aspergillus niger; [7]", "value": 100, "unit": "%"}, {"measurement": "phytotoxic effects", "setting": "14 day old seedlings", "value": "no noticeable phytotoxic effects"}, {"measurement": "fungicidal effect (in words)", "setting": "[4]", "value": "fungicidally effective"}, {"measurement": "anti-fungal activity (in words)", "setting": "Fusarium graminearum; Fusarium graminearum", "value": "some activity"}, {"measurement": "IC50", "setting": "Fusarium graminearum; Fusarium graminearum, read-out: Sensitivity ED50", "value": 20, "unit": "µg/mL"}, {"measurement": "anti-fungal activity (in words)", "setting": "Botrytis cinerea", "value": "some activity"}, {"measurement": "IC50", "setting": "Botrytis cinerea; Botrytis cinerea, read-out: Sensitivity ED50", "value": "> 20", "unit": "µg/mL"}, {"measurement": "cross-resistance with thiabendazole", "setting": "Helminthosporium solani", "value": "no evidence of cross-resistance"}, {"measurement": "anti-fungal activity (in words)", "setting": "Septoria tritici", "value": "active"}, {"measurement": "level of activity compared with azole fungicides currently in use", "setting": "Septoria tritici", "value": "similar, or better"}, {"measurement": "MIC", "setting": "Septoria tritici; Zymoseptoria tritici, read-out: Sensitivity MIC", "value": 5, "unit": "µg/mL"}, {"measurement": "anti-fungal activity (in words)", "setting": "Rhynchosporium secalis", "value": "active"}, {"measurement": "level of activity compared with azole fungicides currently in use", "setting": "Rhynchosporium secalis", "value": "similar, or better"}, {"measurement": "IC50", "setting": "[2]; Oculimacula yallundae, read-out: Sensitivity ED50", "value": 17, "unit": "µg/mL"}, {"measurement": "fungicidal activity (in words)", "setting": "[3]; Pseudocercosporella herpotrichoides", "value": "inconsistent"}, {"measurement": "cross-resistance with carbendazim", "setting": "[3]; Table 2(d)", "value": "no evidence of cross-resistance"}, {"measurement": "fungicidal activity (in words)", "setting": "Rhizoctonia solani", "value": "active"}, {"measurement": "inhibition at 4 µg/mL", "setting": "Rhizoctonia solani; [6]", "value": 37, "unit": "%"}, {"measurement": "inhibition at 20 µg/mL", "setting": "Rhizoctonia solani; [6]", "value": 93, "unit": "%"}, {"measurement": "inhibition at 100 µg/mL", "setting": "Rhizoctonia solani; [6]", "value": 100, "unit": "%"}]}
